According to patent publication US20020193369A1, “Antifungal compounds and uses therefor” (priority 2000, published 2002):
Converted amounts (≈) assume the structure as drawn. Like-named read-outs stand apart in the source and are kept apart here. Marks after values point to notes of the source that are not given here.

Key:
[1] = test system: C. albicans strain ATCC 90028; experiment: Fold reduction of live cells after 24 hr incubation with combinations of azoles and potentiators; assay type: cell-based, Candida albicans
Method: (§1) Eleven structural analogs of INF 801 and fourteen analogs of INF 802 were purchased from ChemBridge, Maybridge and Aldrich and tested for activity. […] The numbers presented in these two tables indicate the -fold reduction in the number of live cells after 24 hour incubation with the combinations of azoles and potentiators. The higher the number, the higher the fungicidal activity of the combination. Note that concentrations of drags are somewhat different in the two tables, so the comparison between the two tables is not meaningful. [table] [table]

[2] = test system: C. albicans isolates (sensitive; isolate #4 over expressing MDR1); experiment: microbe, parasite or virus in culture; assay type: cell-based; conditions: Candida albicans
C. albicans [3] = experiment: Paper disk zones of inhibition on YPD agar plates inoculated with C. albicans; assay type: cell-based, Candida albicans; conditions: for zone of inhibition, combination with fluconazole: disk with fluconazole 1 mg/ml + compound 2.5 mg/ml
C. albicans [4] = experiment: Time-kill experiments in liquid culture of C. albicans; assay type: cell-based, Candida albicans; conditions: for effect on growth of the yeast, compound alone: 10 μg/ml, no fluconazole; for colonies from plating of a milliliter of culture: combination with fluconazole, culture initially 3000 CFU/ml; for drop in number of live cells after 24 hours, combination with fluconazole / drop in number of live cells after 48 hours, combination with fluconazole: fluconazole 32 μg/ml + compound 10 μg/ml
[5] = test system: Candida krusei Strain M13C4; experiment: MIC of fluconazole for Candida krusei with lead compounds; assay type: cell-based; conditions: for MIC of fluconazole: Fluconazole + lead compound
[6] = test system: Candida krusei Strain M13C4; experiment: Killing of Candida krusei by fluconazole combinations (CFU/ml after 24 hours); assay type: cell-based; conditions: for CFU/ml after 24 hours incubation: inoculated at 6000 CFU/ml; for effect in combination with fluconazole on C. kruzei: fluconazole at concentration exceeding its MIC; for effect of compound alone on C. kruzei: not shown
[7] = test system: sterol composition of C. Albicans; experiment: TLC analysis of sterols of C. albicans; assay type: cell-based, Candida albicans; conditions: 24 hours
[8] = test system: Candida krusei Strain M13C4; conditions: cited from earlier work
C. albicans isolates = conditions: cited from earlier work
[9] = cited from earlier work
C. albicans [10] = experiment: Fungicidal synergy with fluconazole against C. albicans (active concentration of leads and analogs); assay type: cell-based, Candida albicans; conditions: for activity (concentration synergizing with fluconazole to a fungicidal effect): fluconazole 32 μg/ml; for concentration at which fungicidal activity is observed: combined with high concentrations of fluconazole (16 μg/ml and more)
Method: In summary, the performed screens of the chemical library identified a number of interesting potentiators of azole activity. Of these potentiators the inventors chose for further development two lead compounds, INF 801 and INF 802. […] Unlike compound INF 799, which is active at very low concentration (2 ng/ml, see above), INF 801 and INF 802 need to be present at relatively high concentrations to be active. When combined with high concentrations of fluconazole (16 μg/ml and more), their fungicidal activity is observed at 1.25 or 2.5 μg/ml, respectively. At concentrations of the azole that are clinically relevant (4 μg/ml), they are active only at ˜5-10 μg/ml.
as §1, with “meaningful.” for “meaningful. [table] [table]”

C. albicans [11] = experiment: Growth of C. albicans in liquid culture with compound alone (without fluconazole); assay type: cell-based, Candida albicans
Solubility limit = assay type: physicochemical; conditions: liquid culture of C. albicans
[12] = compound at 5 μg/ml, inoculum 8000 CFU/ml
[13] = compound at 10 μg/ml, inoculum 7600 CFU/ml
[14] = disk soaked in fluconazole 1 mg/ml or compound 2.5 mg/ml in DMSO
[15] = fluconazole 128 μg/ml + compound 20 μg/ml

In the case of O=CC12c3ccccc3C(c3ccccc31)c1ccccc12 [S 060128], the “fold reduction of the concentration of live cells, + Fluconazole, 16 μg/ml” value (“fold reduction of the concentration … 16 μg/ml” below) [1, 12] is reported as 36 fold, the “fold reduction of the concentration of live cells, + Itraconazole, 1 μg/ml” value [1, 12] is reported as 69 fold and the “fold reduction of the concentration of live cells, + Ketaconazole, 1 μg/ml” value [1, 12] is reported as 380 fold.
For OC(Cn1cncn1)(Cn1cncn1)c1ccc(F)cc1F [Fluconazole, reference compound], the MIC80 ([2]; read-out: MIC80 of fluconazole in sensitive isolates) was 0.5 to 1 µg/mL (≈ 1.63 to 3.27 µM), the MIC ([2]; read-out: MIC of fluconazole, isolate #4) was 8 µg/mL and the “zone of inhibition, single agent” value (C. albicans [3]) was “pronounced zone of growth inhibition”. The “change in number of CFUs after 48 hours, fluconazole alone” value (C. albicans [4]; fluconazole 32 μg/ml, 48 hours) was “four orders of magnitude”, the MIC ([5]; Pichia kudriavzevii, STRAINM13C4, Fluconazole alone) was 64 µg/mL and the “effect of fluconazole alone on C. kruzei” value ([6]; 128 μg/ml) was “strongly fungistatic”. For the same molecule, the “CFU/ml after 24 hours incubation” value ([6]; fluconazole 128 μg/ml alone) was 6230 CFU/ml, the “effect of fluconazole on ergosterol” value ([7]; increasing concentrations of fluconazole) was “decrease in the amount of ergosterol” and the “MIC of fluconazole for C. kruzei (general range)” value [8] was 8 to 128 µg/mL. For the same molecule, the “MIC of fluconazole after 48 hours” value (C. albicans isolates; many isolates) was “exceeds 64 μg/ml”, the “MIC of fluconazole after 24 hours of incubation” value (C. albicans isolates; most isolates) was less than 4 µg/mL and the “absorption from the GI tract” value ([9]; in vivo) was “almost completely absorbed”.
In the case of OC(CN1CCC(/C=C/C2=CC=CCC2)CC1)Cn1c2ccccc2c2ccccc21 (stereo not shown) [DV 236683], the “activity (concentration synergizing with fluconazole to a fungicidal effect)” value (C. albicans [10]) is reported as 5 µg/mL.
With OCC(O)Cn1c2ccc(Cl)cc2c2cc(Cl)ccc21 (stereo not shown) [DV 236818] the “activity (concentration synergizing with fluconazole to a fungicidal effect)” value (C. albicans [10]) was 5 µg/mL.
In the case of OCC(O)Cn1c2ccc(Br)cc2c2cc(Br)ccc21 (stereo not shown) [Compound S243213], the “fold reduction of the concentration … 16 μg/ml” value [1, 13] is reported as 6.9 fold, the “fold reduction of the concentration of live cells, + Itraconazole, 0.5 μg/ml” value [1, 13] is reported as 6.3 fold and the “fold reduction of the concentration of live cells, + Ketaconazole, 0.5 μg/ml” value [1, 13] is reported as 7.8 fold. The “activity (concentration synergizing with fluconazole to a fungicidal effect)” value (C. albicans [10]) was 0.6 µg/mL.
In the case of CC(=O)N1CCN(c2ccc(OCC3COC(Cn4ccnc4)(c4ccc(Cl)cc4Cl)O3)cc2)CC1 (stereo not shown) [Ketoconazole], the peak plasma concentrations ([9]; oral doses 200-800 mg) is listed as 4 to 20 µg/mL.
In the case of OC(CN1CCC(/C=C/C2=CC=CCC2)CC1)Cn1c2ccc(Cl)cc2c2cc(Cl)ccc21 (stereo not shown) [DV 236687], the “activity (concentration synergizing with fluconazole to a fungicidal effect)” value (C. albicans [10]) is reported as 10 µg/mL.
With O=C(O)C12c3ccccc3C(c3ccccc31)c1ccccc12 [INF 802] the “concentration affecting growth of C. albicans without fluconazole” value (C. albicans [11]) was greater than 80 µg/mL, the “growth within zones after a week of incubation, combination with fluconazole” value (C. albicans [3]) was “no growth” and the “zone of inhibition, single agent” value (C. albicans [3]; [14]) was “narrow zones of inhibition”. The “zone of inhibition, combination with fluconazole” value (C. albicans [3]) was “large zones of inhibition lacking any growth”, the “effect on growth of the yeast, compound alone” value (C. albicans [4]) was “very little effect on the growth of the yeast” and the “colonies from plating of a milliliter of culture” value (C. albicans [4]) was “no colonies”. The “drop in number of live cells after 24 hours, combination with fluconazole” value (C. albicans [4]) was “two orders of magnitude”, the “drop in number of live cells after 48 hours, combination with fluconazole” value (C. albicans [4]; 48 hours) was “more than three orders of magnitude” and the MIC of fluconazole [5] was 32 µg/mL. The “effect in combination with fluconazole on C. kruzei” value [6] was “strongly fungicidal”, the “CFU/ml after 24 hours incubation” value [6, 15] was 20 CFU/ml and the “effect of compound alone on C. kruzei” value [6] was “harmless”. The “fold reduction of the concentration … 16 μg/ml” value [1, 12] was 5.5 fold, the “fold reduction of the concentration of live cells, + Itraconazole, 1 μg/ml” value [1, 12] was 5.0 fold and the “fold reduction of the concentration of live cells, + Ketaconazole, 1 μg/ml” value [1, 12] was 6.0 fold. The “concentration at which fungicidal activity is observed” value (C. albicans [10]) was 2.5 µg/mL and the solubility (Solubility limit) was 80 µg/mL (≈ 268 µM).
In the case of CCC(C)n1ncn(-c2ccc(N3CCN(c4ccc(OCC5COC(Cn6cncn6)(c6ccc(Cl)cc6Cl)O5)cc4)CC3)cc2)c1=O (stereo not shown) [Itraconazole], the “absorption in the fasting state relative to drug taken with food” value ([9]; in vivo, po) is listed as 30%.
In the case of Clc1ccccc1C(c1ccccc1)(c1ccccc1)n1ccnc1 [Clotrimazole], the “absorption after application to the skin” value ([9]; in vivo) is listed as “less than 0.5%” and the “absorption from the vagina” value ([9]; in vivo) is listed as 3-10%.
In the case of Clc1ccc(COC(Cn2ccnc2)c2ccc(Cl)cc2Cl)cc1 (stereo not shown) [Econazole], the “fraction absorbed into the blood” value ([9]; in vivo) is listed as “Less than 1%”.
With O=C(O)CCn1c2ccc(Cl)cc2c2cc(Cl)ccc21 [INF 801] the “concentration affecting growth of C. albicans without fluconazole” value (C. albicans [11]) was “exceeding 30 μg/ml”, the “growth within zones after a week of incubation, combination with fluconazole” value (C. albicans [3]) was “no growth” and the “zone of inhibition, single agent” value (C. albicans [3]; [14]) was “narrow zones of inhibition”. The “zone of inhibition, combination with fluconazole” value (C. albicans [3]) was “large zones of inhibition lacking any growth”, the “effect on growth of the yeast, compound alone” value (C. albicans [4]) was “very little effect on the growth of the yeast” and the “colonies from plating of a milliliter of culture” value (C. albicans [4]) was “no colonies”. For the same molecule, the “drop in number of live cells after 24 hours, combination with fluconazole” value (C. albicans [4]) was “two orders of magnitude”, the “drop in number of live cells after 48 hours, combination with fluconazole” value (C. albicans [4]; 48 hours) was “more than three orders of magnitude” and the MIC of fluconazole [5] was 16 µg/mL. For the same molecule, the “effect in combination with fluconazole on C. kruzei” value [6] was “strongly fungicidal”, the “CFU/ml after 24 hours incubation” value [6, 15] was 20 CFU/ml and the “effect of compound alone on C. kruzei” value [6] was “harmless”. For the same molecule, the “fold reduction of the concentration … 16 μg/ml” value [1, 13] was 48* fold, the “fold reduction of the concentration of live cells, + Itraconazole, 0.5 μg/ml” value [1, 13] was 30 fold and the “fold reduction of the concentration of live cells, + Ketaconazole, 0.5 μg/ml” value [1, 13] was 28 fold. The “concentration at which fungicidal activity is observed” value (C. albicans [10]) was 1.25 µg/mL and the “sterol pattern with fluconazole in the presence of INF 801” value ([7]; differing concentrations of fluconazole) was “substituting sterols accumulate in much smaller amounts than in the control”.
